Measurements: patent US10040839B2, “Insulin derivatives and the medical uses hereof” (Novo Nordisk A/S, priority 2014, dated 2018)

Assays:
solubilised human IR-A [1] = target: T1, solubilised human IR-A (Homo sapiens, UniProt P06213); assay: Insulin receptor affinity on solubilised receptors, SPA competition binding, 0% HSA; conditions: solubilised cloned human insulin receptor A isoform, % relative to human insulin
T1 construct: made in house; host or cells: baby hamster kidney (BHK) cells overexpressing the IR-A holoreceptor
T1 sequence (P06213 28-746 isoform P06213-2 limits assumed): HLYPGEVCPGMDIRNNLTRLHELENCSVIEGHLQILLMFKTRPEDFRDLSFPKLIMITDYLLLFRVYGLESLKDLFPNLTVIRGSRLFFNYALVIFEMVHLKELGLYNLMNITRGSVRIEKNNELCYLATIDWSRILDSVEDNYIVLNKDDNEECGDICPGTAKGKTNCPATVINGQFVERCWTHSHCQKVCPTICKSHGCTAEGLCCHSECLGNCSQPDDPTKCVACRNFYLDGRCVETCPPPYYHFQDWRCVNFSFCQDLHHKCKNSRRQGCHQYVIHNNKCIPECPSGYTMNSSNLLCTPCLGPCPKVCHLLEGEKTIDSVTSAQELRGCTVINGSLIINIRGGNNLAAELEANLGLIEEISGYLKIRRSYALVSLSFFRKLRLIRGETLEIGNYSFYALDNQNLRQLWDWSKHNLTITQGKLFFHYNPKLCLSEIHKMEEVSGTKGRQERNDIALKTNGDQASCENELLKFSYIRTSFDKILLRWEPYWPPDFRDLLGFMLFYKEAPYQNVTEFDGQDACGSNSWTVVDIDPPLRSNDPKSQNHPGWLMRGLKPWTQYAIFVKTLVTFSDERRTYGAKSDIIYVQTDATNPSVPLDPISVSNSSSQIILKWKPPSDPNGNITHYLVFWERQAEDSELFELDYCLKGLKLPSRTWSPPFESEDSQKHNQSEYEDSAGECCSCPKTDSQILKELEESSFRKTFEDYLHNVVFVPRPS
T1 sequence (P06213 763-1382 partner limits assumed): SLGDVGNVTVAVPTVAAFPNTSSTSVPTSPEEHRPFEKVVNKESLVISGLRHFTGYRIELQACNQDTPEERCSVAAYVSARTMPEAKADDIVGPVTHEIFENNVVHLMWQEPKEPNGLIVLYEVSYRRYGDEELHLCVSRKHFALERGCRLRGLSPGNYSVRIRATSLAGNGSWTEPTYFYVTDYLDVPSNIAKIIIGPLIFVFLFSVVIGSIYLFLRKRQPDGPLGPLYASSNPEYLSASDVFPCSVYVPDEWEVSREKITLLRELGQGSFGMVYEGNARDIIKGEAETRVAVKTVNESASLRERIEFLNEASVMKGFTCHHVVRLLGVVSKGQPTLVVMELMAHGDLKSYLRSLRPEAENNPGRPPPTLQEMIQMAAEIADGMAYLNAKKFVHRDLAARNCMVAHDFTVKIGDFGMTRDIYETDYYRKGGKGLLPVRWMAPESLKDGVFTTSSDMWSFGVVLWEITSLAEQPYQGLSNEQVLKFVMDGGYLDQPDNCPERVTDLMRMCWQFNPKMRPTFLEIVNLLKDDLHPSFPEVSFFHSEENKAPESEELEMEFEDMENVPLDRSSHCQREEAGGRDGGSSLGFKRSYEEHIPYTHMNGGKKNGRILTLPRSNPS

solubilised human IR-A [2] = target: T1, solubilised human IR-A; assay: Insulin receptor affinity on solubilised receptors, SPA competition binding, binding buffer with […] HSA; conditions: solubilised cloned human insulin receptor A isoform, % relative to human insulin
[3] = target: T2, membrane-associated human IR-A (Homo sapiens, UniProt P06213); assay: Insulin receptor affinity on membrane-associated receptors, SPA competition binding
T2 construct: expressed in transfected cells; host or cells: BHK cells stably transfected with pZem219B vector (plasma membrane preparation)
T2 sequence (P06213 28-746 isoform P06213-2 limits assumed): as the sequence (P06213 28-746 isoform P06213-2 limits assumed) above
T2 sequence (P06213 763-1382 partner limits assumed): as the sequence (P06213 763-1382 partner limits assumed) above
Experimental: (§1) Membrane-associated human IR and IGF-1R are purified from BHK cells stably transfected with the pZem219B vector containing either the human IR-A, IR-B or IGF-IR insert. BHK cells are harvested and homogenized in ice-cold buffer (25 mM HEPES pH 7.4, 25 mM CaCl2 and 1 mM MgCl2, 250 mg/L bacitracin, 0.1 mM Pefablock). […] The pellets are re-suspended in a minimal volume of buffer and drawn through a needle (size 23) three times before storage at −80° C. until usage.
(§2) The relative binding affinity for either of the membrane-associated human IR-A, IR-B or IGF-1R is determined by competition binding in a SPA setup. IR assays are performed in duplicate in 96-well OptiPlates (Perkin-Elmer Life Sciences). […] Assays are terminated by centrifugation of the plate at 2000 rpm for 2 minutes and bound radioactivity quantified by counting on a TopCount NXT (Perkin-Elmer Life Sciences).
(§3) IGF-1R assays are conducted essentially as for the IR binding assays except that membrane-associated IGF-1R and 50 pM [^125 I-Tyr31]-human IGF-1 were employed.

[4] = target: T3, membrane-associated human IGF-1R (Homo sapiens, UniProt P08069); assay: IGF-1 receptor affinity on membrane-associated receptors, SPA competition binding; conditions: membrane-associated cloned human IGF-1R, % relative to human insulin
T3 construct: expressed in transfected cells; host or cells: BHK cells stably transfected with pZem219B vector (plasma membrane preparation)
T3 sequence (P08069 31-736 limits assumed): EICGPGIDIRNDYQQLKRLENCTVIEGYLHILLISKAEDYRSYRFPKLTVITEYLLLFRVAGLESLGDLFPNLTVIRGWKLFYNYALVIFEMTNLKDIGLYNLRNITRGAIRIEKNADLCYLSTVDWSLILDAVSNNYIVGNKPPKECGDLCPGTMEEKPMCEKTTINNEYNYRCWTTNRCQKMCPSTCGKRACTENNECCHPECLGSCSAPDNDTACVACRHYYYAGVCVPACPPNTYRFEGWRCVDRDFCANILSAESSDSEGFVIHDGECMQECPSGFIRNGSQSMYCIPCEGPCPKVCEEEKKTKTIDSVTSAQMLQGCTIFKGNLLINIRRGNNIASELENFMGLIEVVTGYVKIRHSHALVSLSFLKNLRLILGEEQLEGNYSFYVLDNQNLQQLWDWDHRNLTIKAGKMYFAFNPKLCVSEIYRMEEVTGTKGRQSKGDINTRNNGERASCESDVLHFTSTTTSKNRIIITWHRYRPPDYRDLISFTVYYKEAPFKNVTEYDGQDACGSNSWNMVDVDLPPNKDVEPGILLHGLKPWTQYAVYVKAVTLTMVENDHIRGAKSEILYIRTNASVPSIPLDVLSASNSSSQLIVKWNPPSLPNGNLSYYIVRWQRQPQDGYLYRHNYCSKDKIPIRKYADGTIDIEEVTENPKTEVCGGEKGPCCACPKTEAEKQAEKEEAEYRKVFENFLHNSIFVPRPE
T3 sequence (P08069 741-1367 partner limits assumed): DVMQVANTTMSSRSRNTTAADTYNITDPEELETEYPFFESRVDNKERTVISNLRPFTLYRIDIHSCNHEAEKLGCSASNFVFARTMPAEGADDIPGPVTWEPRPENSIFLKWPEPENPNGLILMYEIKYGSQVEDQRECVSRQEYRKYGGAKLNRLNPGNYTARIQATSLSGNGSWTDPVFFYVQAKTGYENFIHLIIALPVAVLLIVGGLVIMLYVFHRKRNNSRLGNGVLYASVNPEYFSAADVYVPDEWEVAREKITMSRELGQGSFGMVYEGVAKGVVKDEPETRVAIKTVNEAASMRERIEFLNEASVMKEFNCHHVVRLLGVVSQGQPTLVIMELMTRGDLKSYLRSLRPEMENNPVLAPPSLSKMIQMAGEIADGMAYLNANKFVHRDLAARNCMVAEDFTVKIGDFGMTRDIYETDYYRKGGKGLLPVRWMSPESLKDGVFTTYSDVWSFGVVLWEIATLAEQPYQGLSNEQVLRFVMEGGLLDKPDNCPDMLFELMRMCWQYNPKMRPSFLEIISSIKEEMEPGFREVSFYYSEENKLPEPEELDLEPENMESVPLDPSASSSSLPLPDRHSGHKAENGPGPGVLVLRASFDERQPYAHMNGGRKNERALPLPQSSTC
Experimental: as §1, §2, §3

- Relative IR-A affinity (@ 0% HSA) (solubilised human IR-A [1]): 241.7%
- Relative IR-A affinity (@ […] HSA) (solubilised human IR-A [2]): 117.9%
- Relative IR-A affinity (@ 0.1% HSA) ([3]; membrane-associated cloned human IR-A, 0.1% HSA, % relative to human insulin): 117.3%
- IR IGF1 ratio ([3]; ratio of IR-A to IGF-1R affinities from membrane-associated receptors): 0.21
- Relative IGF-1R affinity (@ 0.1% HSA) [4]: 546.4%
Substance: A22K(N(Eps)-Tetradecanedioyl-2×OEG), desB27, B29R, desB30 Human Insulin [Example 17]
